Columns and labels:
[1] = test system: GP2d cells (KRAS G12D); test: Cell-based pERK HTRF assay in GP2d cell (Biological Example 2); conditions: GP2d (KRAS G12D) cells
Procedure, shortened: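 GP2d (KRAS G12D) cells were plated in DMEM/10% FBS and treated the next day for 60 min with compounds. Dosing used 9-point half-log series starting at 1 μM or 100 nM in 0.25% DMSO. Lysates were read by HTRF pERK (d2/Eu cryptate antibodies) after 4–24 h at room temperature, with excitation at 320 nm and emission at 615 nm.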

[2] = target: T1, Avi-KRAS G12D (2-169) GTP/RAF1 RBD-3xFLAG (51-131) (Homo sapiens, UniProt P01116, G12D); test: Raf1-KRAS G12D-GTP disruption HTRF assay (Biological Example 3); type: binding; conditions: KRAS G12D, GTP-loaded
T1 construct: Avi-KRAS G12D (2-169)
Procedure, shortened: (§1)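 Compounds were titrated 10-point, 3-fold from 30 μM against preformed KRAS-GTP:RAF1 RBD (51-131) complexes at 50 nM, using KRAS 2-169 as WT, G12C, G12D or G12V. After 1 h at room temperature in Tris pH 7.5 buffer with MgCl2 and 10% DMSO, time-resolved fluorescence was read. Results are percent activity versus DMSO.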

[3] = target: T2, Avi-KRAS G12C (2-169) GTP/RAF1 RBD-3xFLAG (51-131) (Homo sapiens, UniProt P01116, G12C); test: Raf1-KRAS G12C-GTP disruption HTRF assay (Biological Example 3); type: binding; conditions: KRAS G12C, GTP-loaded
T2 construct: Avi-KRAS G12C (2-169)
Procedure, shortened: as §1

[4] = target: T3, Avi-KRAS G12V (2-169) GTP/RAF1 RBD-3xFLAG (51-131) (Homo sapiens, UniProt P01116, G12V); test: Raf1-KRAS G12V-GTP disruption HTRF assay (Biological Example 3); type: binding; conditions: KRAS G12V, GTP-loaded
T3 construct: Avi-KRAS G12V (2-169)
Procedure, shortened: as §1

[5] = target: T4, Avi-KRAS WT (2-169) GTP/RAF1 RBD-3xFLAG (51-131) (Homo sapiens, UniProt P01116); test: Raf1-KRAS WT-GTP disruption HTRF assay (Biological Example 3); type: binding; conditions: KRAS WT, GTP-loaded
T4 construct: Avi-KRAS WT (2-169)
Procedure, shortened: as §1

[6] = test system: SW620 cells (KRAS G12V); test: Cell-based pERK HTRF assay in SW620 cell (Biological Example 4)
Procedure, shortened: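 SW620 seeded in RPMI/10% FBS, next day dosed 4 h (top 1 μM, half-log, 9 pts, 0.25% DMSO). Lysed, pERK by d2/Eu cryptate HTRF, 4–24 h RT, 615 nm read.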

[7] = Homo sapiens, SW-620, SW620 (KRAS G12V) cells

T2 sequence (P01116 2-169 isoform P01116-2 G12C): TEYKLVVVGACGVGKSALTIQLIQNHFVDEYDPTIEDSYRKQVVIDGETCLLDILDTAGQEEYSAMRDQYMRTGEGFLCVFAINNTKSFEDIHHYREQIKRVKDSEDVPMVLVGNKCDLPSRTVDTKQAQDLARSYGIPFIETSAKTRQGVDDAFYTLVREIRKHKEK
T4 sequence (P01116 2-169 isoform P01116-2): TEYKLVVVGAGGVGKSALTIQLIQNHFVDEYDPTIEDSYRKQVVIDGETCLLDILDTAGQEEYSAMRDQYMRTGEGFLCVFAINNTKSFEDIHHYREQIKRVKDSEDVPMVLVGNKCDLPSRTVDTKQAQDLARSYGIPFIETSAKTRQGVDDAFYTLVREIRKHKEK
T1 sequence (P01116 2-169 isoform P01116-2 G12D): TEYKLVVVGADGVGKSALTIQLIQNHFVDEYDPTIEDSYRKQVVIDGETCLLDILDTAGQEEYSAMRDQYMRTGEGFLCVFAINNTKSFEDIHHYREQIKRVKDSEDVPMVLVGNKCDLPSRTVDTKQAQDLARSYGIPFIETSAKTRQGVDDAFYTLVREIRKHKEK
T3 sequence (P01116 2-169 isoform P01116-2 G12V): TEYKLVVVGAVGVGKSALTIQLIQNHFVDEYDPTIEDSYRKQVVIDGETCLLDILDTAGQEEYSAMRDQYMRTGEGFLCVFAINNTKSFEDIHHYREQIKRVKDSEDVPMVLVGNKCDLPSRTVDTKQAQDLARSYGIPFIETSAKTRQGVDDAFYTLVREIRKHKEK

Structure (SMILES)	IC50 ([1]; GP2d)	IC50 [2]	IC50 [3]	IC50 [4]	IC50 [5]	IC50 [6, 7]	IC50 [1]	IC50 ([6]; SW620 (KRAS G12V) cells)
CCN(c1nc(OC[C@@]23CCCN2C[C@H](F)C3)nc2c(F)c(-c3ccc(F)c4sc(N)c(C#N)c34)c(C(F)(F)F)cc12)[C@H]1C[C@H](C)N(C(=O)C2C[C@@H]2F)C1 (stereo partly drawn) [Compound 886]	< 100 nM	100 to 1000 nM	≤ 100 nM	≤ 100 nM	100 to 1000 nM	< 100 nM	–	–
CCN(c1nc(OC[C@@]23CCCN2C[C@H](F)C3)nc2c(F)c(-c3ccc(F)c4sc(N)c(C#N)c34)c(C(F)(F)F)cc12)[C@H]1CCN(C(=O)C2CC2(F)F)[C@@H]1C (stereo partly drawn) [Compound 888]	< 100 nM	100 to 1000 nM	100 to 1000 nM	100 to 1000 nM	100 to 1000 nM	< 100 nM	–	–
CCN(c1nc(OC[C@@]23CCCN2C[C@H](F)C3)nc2c(F)c(-c3ccc(F)c4sc(N)c(C#N)c34)c(C(F)(F)F)cc12)[C@H]1C[C@@H](C)N(C(=O)OC2CC(OC)C2)C1 (stereo partly drawn) [Compound 895]	< 100 nM	100 to 1000 nM	100 to 1000 nM	100 to 1000 nM	1000 to 10000 nM	< 100 nM	–	–
CCN(c1nc(OC[C@@]23CCCN2C[C@H](F)C3)nc2c(F)c(-c3ccc(F)c4sc(N)c(C#N)c34)c(C(F)(F)F)cc12)[C@H]1CCN(C(=O)OC2CC(OC)C2)[C@@H]1C (stereo partly drawn) [Compound 897]	< 100 nM	100 to 1000 nM	100 to 1000 nM	100 to 1000 nM	100 to 1000 nM	< 100 nM	–	–
CCN(c1nc(OC[C@@]23CCCN2C[C@H](F)C3)nc2c(F)c(-c3ccc(F)c4sc(N)c(C#N)c34)c(C(F)(F)F)cc12)C1CCN(C(=O)C2CC2)C1 (stereo partly drawn) [Compound 903]	< 100 nM	≤ 100 nM	≤ 100 nM	≤ 100 nM	100 to 1000 nM	< 100 nM	–	–
CCN(c1nc(OC[C@@]23CCCN2C[C@H](F)C3)nc2c(F)c(-c3ccc(F)c4sc(N)c(C#N)c34)c(C(F)(F)F)cc12)[C@H]1C[C@H](C)N(C(=O)OC2CC(OC)C2)C1 (stereo partly drawn) [Compound 907]	< 100 nM	100 to 1000 nM	100 to 1000 nM	100 to 1000 nM	100 to 1000 nM	< 100 nM	–	–
CN(Cc1cnco1)c1nc(OC[C@@]23CCCN2C[C@H](F)C3)nc2c(F)c(-c3ccc(F)c4sc(N)c(C#N)c34)c(C(F)(F)F)cc12 [Compound 908]	< 100 nM	100 to 1000 nM	1000 to 10000 nM	1000 to 10000 nM	1000 to 10000 nM	< 100 nM	–	–
CCN(c1nc(OC[C@@]23CCCN2C[C@H](F)C3)nc2c(F)c(-c3ccc(F)c4sc(N)c(C#N)c34)c(C(F)(F)F)cc12)C1C[C@H](C)N(C(=O)C2CC2)C1 (stereo partly drawn) [Compound 909]	–	100 to 1000 nM	100 to 1000 nM	100 to 1000 nM	100 to 1000 nM	–	< 100 nM	< 100 nM
CCN(c1nc(OC[C@@]23CCCN2C[C@H](F)C3)nc2c(F)c(-c3ccc(F)c4sc(N)c(C#N)c34)c(C(F)(F)F)cc12)[C@H]1C[C@H](C)N(C(=O)C2CC(OC)C2)C1 (stereo partly drawn) [Compound 928]	< 100 nM	100 to 1000 nM	100 to 1000 nM	100 to 1000 nM	100 to 1000 nM	< 100 nM	–	–
CCN(c1nc(OCC23CCCN2CC(F)C3)nc2c(F)c(-c3ccc(F)c4sc(N)c(C#N)c34)c(C(F)(F)F)cc12)C1CCN(C(=O)c2ccc(Cl)s2)C1 (stereo not drawn) [Compound 929]	–	100 to 1000 nM	100 to 1000 nM	100 to 1000 nM	100 to 1000 nM	–	< 100 nM	< 100 nM
CCN(c1nc(OCC23CCCN2CC(F)C3)nc2c(F)c(-c3ccc(F)c4sc(N)c(C#N)c34)c(C(F)(F)F)cc12)C1CCN(C(=O)c2nc(C)ns2)C1 (stereo not drawn) [Compound 932]	< 100 nM	100 to 1000 nM	100 to 1000 nM	1000 to 10000 nM	1000 to 10000 nM	< 100 nM	–	–
CCN(c1nc(OCC23CCCN2CC(F)C3)nc2c(F)c(-c3ccc(F)c4sc(N)c(C#N)c34)c(C(F)(F)F)cc12)C(C)c1cccnc1 (stereo not drawn) [Compound 933]	< 100 nM	1000 to 10000 nM	> 10000 nM	> 10000 nM	> 10000 nM	< 100 nM	–	–
N#Cc1c(N)sc2c(F)ccc(-c3c(C(F)(F)F)cc4c(N5CCc6ccncc6C5)nc(OC[C@@]56CCCN5C[C@H](F)C6)nc4c3F)c12 [Compound 942]	< 100 nM	> 10000 nM	> 10000 nM	> 10000 nM	> 10000 nM	100 to 1000 nM	–	–
N#Cc1c(N)sc2c(F)ccc(-c3c(C(F)(F)F)cc4c(N5CCC(c6cccnc6)C5)nc(OC[C@@]56CCCN5C[C@H](F)C6)nc4c3F)c12 (stereo partly drawn) [Compound 943]	< 100 nM	> 10000 nM	> 10000 nM	> 10000 nM	> 10000 nM	< 100 nM	–	–
N#Cc1c(N)sc2c(F)ccc(-c3c(C(F)(F)F)cc4c(N5CCCC(c6cccnc6)C5)nc(OC[C@@]56CCCN5C[C@H](F)C6)nc4c3F)c12 (stereo partly drawn) [Compound 944]	100 to 1000 nM	> 10000 nM	> 10000 nM	> 10000 nM	> 10000 nM	100 to 1000 nM	–	–
CCN(c1nc(OC[C@@]23CCCN2C[C@H](F)C3)nc2c(F)c(-c3ccc(F)c4sc(N)c(C#N)c34)c(C(F)(F)F)cc12)[C@@H]1CCN(c2ccccn2)C1 [Compound 945]	< 100 nM	1000 to 10000 nM	> 10000 nM	> 10000 nM	> 10000 nM	< 100 nM	–	–
N#Cc1c(N)sc2c(F)ccc(-c3c(C(F)(F)F)cc4c(N5Cc6ccncc6C5)nc(OC[C@@]56CCCN5C[C@H](F)C6)nc4c3F)c12 [Compound 946]	< 100 nM	1000 to 10000 nM	1000 to 10000 nM	1000 to 10000 nM	1000 to 10000 nM	100 to 1000 nM	–	–
CCN(c1nc(OC[C@@]23CCCN2C[C@H](F)C3)nc2c(F)c(-c3ccc(F)c4sc(N)c(C#N)c34)c(C(F)(F)F)cc12)C1CCN(C(=O)OC)C1 (stereo partly drawn) [Compound 947]	–	1000 to 10000 nM	1000 to 10000 nM	> 10000 nM	> 10000 nM	–	< 100 nM	100 to 1000 nM
CCN(c1nc(OC[C@@]23CCCN2C[C@H](F)C3)nc2c(F)c(-c3ccc(F)c4sc(N)c(C#N)c34)c(C(F)(F)F)cc12)[C@H]1CCN(c2ccccn2)C1 [Compound 948]	< 100 nM	1000 to 10000 nM	1000 to 10000 nM	> 10000 nM	> 10000 nM	< 100 nM	–	–
CCN(c1nc(OCC23CCCN2CC(F)C3)nc2c(F)c(-c3ccc(F)c4sc(N)c(C#N)c34)c(C(F)(F)F)cc12)C1CCN(C(=O)c2ncns2)C1 (stereo not drawn) [Compound 949]	< 100 nM	100 to 1000 nM	100 to 1000 nM	100 to 1000 nM	100 to 1000 nM	< 100 nM	–	–

Source: patent US20260042764A1, “COMPOSITIONS AND METHODS FOR INHIBITION OF KRAS” (TheRas, Inc., priority 2022, published 2026)
